US11685716B2, “Plant growth inhibiting agent, and plant growth inhibiting method using same” (NATIONAL UNIVERSITY CORPORATION KUMAMOTO UNIVERSITY, priority 2017, dated 2023)
*1 amine or outer side, *2 acyl side, *3 side chain or, on linkers, in order; H or OH if unused. Where a SMILES comes first, the peptide text is derived from it. Bridges are numbered along the chain shown (N, C = ends). Roman numbers before positions name the chains, in order. [ ]: non-standard residue; d: D form. Actinocin(9to1) = Cc1c2oc3c(C)ccc(C(=O)[*:1])c3nc-2c(C(=O)[*:2])c(N)c1=O; NMeV = CN[C@H](C(=O)O)C(C)C; Sar = CNCC(=O)O

Experiments:
[1] = test system: HeLa cell; assay: Cell proliferation inhibiting activity on human cultured cancer cells (Evaluation 2); assay type: cell-based; conditions: 32 hours; for effect on growth rate of HeLa cells (living cell counts): final concentration 200 μM
Method: Every 8 hours after the culture was started, living cell counts were measured with a cell counting kit (DOJINDO LABORATORIES). In addition, staurosporine was used as a control of the compound which inhibits the cell proliferation.

[2] = test system: HeLa cell; assay: Cytotoxicity on human cultured cancer cells, relative survival rate (Evaluation 7); assay type: cell-based; conditions: control
Method: HeLa cells were cultured in a 96-well plate using Dulbecco's Modified Eagle's Medium (DHEM) under the culture conditions of 5% carbon dioxide and at 37° C. The compound (8b) (final concentration 50 μM), the compound (8f) (final concentration 50 μM), DMSO (final concentration 0.25%), Actinomycin D (final concentration 5 μg/ml) or Nocodazole (final concentration 100 ng/ml) was added 0 (48-hr compound treated sample), 12 (36-hr compound treated sample), 24 (24-hr compound treated sample), 36 (12-hr compound treated sample), and 48 (0-hr compound treated sample) hours after the culture was started. All of the samples were measured for living cell counts 48 hours after the culture was started with a cell counting kit (DOJINDO LABORATORIES), and a measured value of each-time compound treated-sample was divided by the measured value of 0-time compound treated sample to calculate a relative survival rate.
In addition, a transcription inhibitor Actinomycin D and a tubulin polymerization inhibitor Nocodazole were used as controls of the compounds which had cytotoxicity (induces apoptosis). DMSO is a solvent in which the compound (8b) or the compound (8f) was dissolved, and used as a control to observe the affect of the solvent on the cells.

[3] = test system: Saccharomyces cerevisiae (BY4741 strain); assay: Growth inhibiting activity on Saccharomyces cerevisiae (Evaluation 4); assay type: cell-based; conditions: final concentration 10 μM or 100 μM, up to 24 hours
Method: The compound (6a) or the compound (7) (final concentration 10 μM or 100 μM), or 50% ethanol (final concentration 0.05% or 0.5%) was added to YPD medium in which Saccharomyces cerevisiae (BY4741 strain) was inoculated to carry out shaking culture at 30° C. Four, 8, 16, and 24 hours after the culture was started, turbidity (OD600) of the culture medium was measured with a spectrophotometer to analyze the affect of the compound (6a) or the compound (7), or 50% ethanol on the growth of the […] cells.

[4] = test system: thale cress; assay: Activities on plants: growth of thale cress on agar medium (Evaluation 1, 6); assay type: in vivo, thale cress (Col-0, wild-type strain); conditions: for twisting of root epidermal cells / abnormality in direction of root growth: scanned images
Method: The test compound (compound (6a)) and DMSO for a control experiment, were added at this stage and blended. Fifty ml each of the medium was dispensed in sterile No. 2 square petri dishes (Eiken Chemical Co., Ltd.) to prepare agar medium. As a plant material, Col-0, which is a wild-type strain of […] used. Seeds, after their surfaces were sterilized, were planted on the agar medium, and vernalized at 4° C. for 16 hours. Growth of the plant was carried out in a growth chamber (SANYO MLR-351) under the conditions of an illuminance of 3 at 23° C. with constant light. The agar medium was allowed to stand upright in the chamber to grow the plant for 7 days. Lids of the petri dishes used for the test were opened, the test results were recorded with a scanner, and with the scanned images, […]

[5] = test system: Schizosaccharomyces pombe (wild-type strain 972); assay: Growth inhibiting activity on Schizosaccharomyces pombe (Evaluation 3); assay type: cell-based; conditions: final concentration 100 μM, up to 30 hours
Method: The compound (6a) or the compound (7) (final concentration 100 μM) or 50% ethanol (final concentration 0.5%) was added to YE medium in which Schizosaccharomyces pombe (wild-type strain 972) was inoculated to carry out shaking culture at 30° C. Six, 12, 18, 24, and 30 hours after the culture was started, turbidity (OD600) of the culture medium was measured with a spectrophotometer to analyze the affect of the compound (6a) or the compound (7), or 50% ethanol on the growth of the Schizosaccharomyces pombe cells.

[6] = test system: E. coli (DH5a strain); assay: E. coli growth inhibiting activity (Evaluation 5); assay type: cell-based
Method: The compound (6a) or the compound (7) (final concentration 10 μM or 100 μM), 50% ethanol (final concentration 0.05% or 0.5%), or ampicillin (final concentration 50 μg/ml) was added to LB medium in which E. coli (DH5a strain) was added to carry out shaking culture at 37° C. One, 2, 4, and 6 hours after the culture was started, turbidity (OD600) of the culture medium was measured with a spectrophotometer to analyze the affect of the compound (6a) or the compound (7), 50% ethanol, ampicillin on the growth of E. coli cells.
In addition, ampicillin was used as a control of the compound which inhibits the growth.

[7] = thale cress Col-0, agar medium, 7 days
[8] = final concentration 10 μM or 100 μM, up to 6 hours

SMILES: CN[C@@H]1C[C@H]2O[C@@](C)([C@@H]1OC)n1c3ccccc3c3c4c(c5c6ccccc6n2c5c31)C(=O)NC4 [staurosporine, reference compound]
- effect on HeLa cells (living cell counts) ([1]; final concentration 1 μM, control): induced the apoptosis

SMILES: COC(=O)Nc1nc2ccc(C(=O)c3cccs3)cc2[nH]1 [Nocodazole]
- viability of HeLa cells (relative survival rate) ([2]; final concentration 100 ng/ml): induced apoptosis

SMILES: COn1cccc1C(=O)O [Compound 6a, 1-Methoxy-1H-pyrrole-2-carboxylic acid]
- growth of Saccharomyces cerevisiae (OD600) [3]: neither the compound (6a) nor the compound (7) inhibits the growth
- plant growth inhibition effect (activity on plant growth) [4, 7]: plant growth inhibition was significantly observed
- twisting of root epidermal cells / abnormality in direction of root growth [4, 7]: epidermal cells of the roots were twisted leftward and abnormality in a direction of root growth was observed
- root epidermal cells, observation by stereomicroscope ([4]; thale cress Col-0, compound added, FIG. 2): epidermal cells of the roots were observed to have been twisted leftward
- growth of Schizosaccharomyces pombe (OD600) [5]: neither the compound (6a) nor the compound (7) inhibits the growth
- E. coli growth (OD600) [6, 8]: neither the compound (6a) nor the compound (7) inhibits the E. coli growth
- effect on growth rate of HeLa cells (living cell counts) [1]: no affect at all

SMILES: COn1cccc1C(N)=O [Compound 7, 1-Methoxy-1H-pyrrole-2-carboxamide]
- growth of Saccharomyces cerevisiae (OD600) [3]: neither the compound (6a) nor the compound (7) inhibits the growth
- twisting of root epidermal cells / abnormality in direction of root growth [4, 7]: epidermal cells of the roots were twisted leftward and abnormality in a direction of the root growth was observed
- growth of Schizosaccharomyces pombe (OD600) [5]: neither the compound (6a) nor the compound (7) inhibits the growth
- E. coli growth (OD600) [6, 8]: neither the compound (6a) nor the compound (7) inhibits the E. coli growth
- effect on growth rate of HeLa cells (living cell counts) [1]: no affect at all

SMILES: Cc1c2oc3c(C)ccc(C(=O)N[C@@H]4C(=O)N[C@H](C(C)C)C(=O)N5CCC[C@H]5C(=O)N(C)CC(=O)N(C)[C@@H](C(C)C)C(=O)O[C@@H]4C)c3nc-2c(C(=O)N[C@@H]2C(=O)N[C@H](C(C)C)C(=O)N3CCC[C@H]3C(=O)N(C)CC(=O)N(C)[C@@H](C(C)C)C(=O)O[C@@H]2C)c(N)c1=O [Actinomycin D] (I: T[dV]P[Sar][NMeV] / II: T[dV]P[Sar][NMeV]; ester I:1-I:C, II:1-II:C; linker I:N-II:N via Actinocin(9to1))
- viability of HeLa cells (relative survival rate) ([2]; final concentration 5 μg/ml): induced apoptosis

SMILES: CC1(C)S[C@@H]2[C@H](NC(=O)[C@H](N)c3ccccc3)C(=O)N2[C@H]1C(=O)O [ampicillin, reference compound]
- E. coli growth (OD600) ([6]; final concentration 50 μg/ml, control): growth inhibition was observed
